# From US20220062240A1, “METHODS OF TREATING CANCER USING A CLK INHIBITOR” (BioSplice Therapeutics, Inc., priority 2018, published 2022)
# pEC50: −log10 of the molar value. Like-named read-outs stand apart in the source and are kept apart here.
# Experiments:
# CLK2 = target: T1, CLK2 (Homo sapiens, UniProt P49760); test: CLK2 kinase activity assay (Z-lyte, Ser/Thr 6 peptide); assay type: biochemical
# T1 construct: purchased Thermo Fisher (Life Technologies), Z'-LYTE Kinase Assay Kits
# Protocol: All reactions were performed in duplicate.
# BT-549 = test: CellTiter-Glo Viability Assay, breast cancer; assay type: cell-based; conditions: Homo sapiens, BT-549, 96 h
# CAMA1 = test: CellTiter-Glo Viability Assay, breast cancer; assay type: cell-based; conditions: Homo sapiens, CAMA-1, 96 h
# DU4475 = test: CellTiter-Glo Viability Assay, breast cancer; assay type: cell-based; conditions: Homo sapiens, DU-4475, 96 h
# HCC1599 = test: CellTiter-Glo Viability Assay, breast cancer; assay type: cell-based; conditions: Homo sapiens, HCC1599, 96 h
# MCF7 = test: CellTiter-Glo Viability Assay, breast cancer; assay type: cell-based; conditions: Homo sapiens, MCF7, 96 h
# MDA-MB-231-Luc = test: CellTiter-Glo Viability Assay, breast cancer; assay type: cell-based; conditions: Homo sapiens, 96 h
# T47D = test: CellTiter-Glo Viability Assay, breast cancer; assay type: cell-based; conditions: Homo sapiens, 96 h
# ZR-75-1 = test: CellTiter-Glo Viability Assay, breast cancer; assay type: cell-based; conditions: Homo sapiens, ZR-75-1, 96 h
# all 50 cell lines = test: CellTiter-Glo Viability Assay, average across all cell lines; assay type: cell-based; conditions: Homo sapiens, read-out: average EC50 for inhibition of cancer cell proliferation
# Procedure, shortened: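 Luminescent ATP read-out (CellTiter-Glo) after a 4-day compound exposure at 37° C served as the viability measure. Cells were seeded at 300-3,000/well, compound wells run in duplicate against DMSO controls, and EC50 values came from fitted dose-response curves.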
# [1] = tested on: colorectal cancer (6 cell lines); test: CellTiter-Glo Viability Assay, colorectal cancer; assay type: cell-based; conditions: Homo sapiens
# [2] = tested on: haematopoietic & lymphoid tumors (13 cell lines); test: CellTiter-Glo Viability Assay, haematopoietic & lymphoid tumors; assay type: cell-based; conditions: Homo sapiens
# [3] = tested on: liver cancer (3 cell lines); test: CellTiter-Glo Viability Assay, liver cancer; assay type: cell-based; conditions: Homo sapiens
# [4] = tested on: lung cancer (4 cell lines); test: CellTiter-Glo Viability Assay, lung cancer; assay type: cell-based; conditions: Homo sapiens
# [5] = tested on: ovarian cancer (4 cell lines); test: CellTiter-Glo Viability Assay, ovarian cancer; assay type: cell-based; conditions: Homo sapiens
# [6] = tested on: pancreatic cancer (8 cell lines); test: CellTiter-Glo Viability Assay, pancreatic cancer; assay type: cell-based; conditions: Homo sapiens
# [7] = tested on: prostate cancer (5 cell lines); test: CellTiter-Glo Viability Assay, prostate cancer; assay type: cell-based; conditions: Homo sapiens
# CLK3 = CLK3 (Homo sapiens, UniProt P49761); test: CLK3 kinase activity assay (Z-lyte, Ser/Thr 18 peptide)
# CLK3, sequence (P49761 whole entry): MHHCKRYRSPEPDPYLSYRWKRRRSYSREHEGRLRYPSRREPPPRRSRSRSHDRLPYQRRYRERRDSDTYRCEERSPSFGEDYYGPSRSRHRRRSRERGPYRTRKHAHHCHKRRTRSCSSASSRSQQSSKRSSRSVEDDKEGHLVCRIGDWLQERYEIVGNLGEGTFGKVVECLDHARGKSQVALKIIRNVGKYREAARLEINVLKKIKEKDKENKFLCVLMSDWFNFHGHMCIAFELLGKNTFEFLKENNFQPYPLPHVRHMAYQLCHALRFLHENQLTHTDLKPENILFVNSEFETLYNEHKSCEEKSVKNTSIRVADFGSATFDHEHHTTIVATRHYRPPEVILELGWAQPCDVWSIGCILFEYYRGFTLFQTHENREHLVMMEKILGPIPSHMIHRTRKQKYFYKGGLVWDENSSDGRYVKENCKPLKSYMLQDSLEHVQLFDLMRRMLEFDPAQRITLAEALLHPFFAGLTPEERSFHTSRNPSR
# T1 sequence (P49760 whole entry): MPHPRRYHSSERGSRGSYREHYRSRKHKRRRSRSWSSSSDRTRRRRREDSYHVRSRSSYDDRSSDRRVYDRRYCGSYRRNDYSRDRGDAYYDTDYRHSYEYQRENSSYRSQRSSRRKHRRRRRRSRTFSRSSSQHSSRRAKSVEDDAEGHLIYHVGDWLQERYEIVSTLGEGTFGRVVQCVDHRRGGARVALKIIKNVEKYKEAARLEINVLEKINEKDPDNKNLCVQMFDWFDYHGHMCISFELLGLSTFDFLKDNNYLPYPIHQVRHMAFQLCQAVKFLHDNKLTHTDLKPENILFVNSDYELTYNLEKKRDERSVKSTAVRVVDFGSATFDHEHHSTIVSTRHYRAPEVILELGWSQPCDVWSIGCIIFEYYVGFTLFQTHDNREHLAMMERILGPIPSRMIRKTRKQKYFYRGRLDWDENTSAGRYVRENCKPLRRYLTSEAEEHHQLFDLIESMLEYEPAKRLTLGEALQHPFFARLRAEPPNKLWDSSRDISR
structure (smiles),measurement,setting,value
CN1CCC(N(C)c2cc(C(=O)Nc3cc4cc(-c5cnn(C)c5)ccc4cn3)ccn2)CC1 [Compound 72],pEC50,CLK2,8.89
same,pEC50,BT-549,6.73
same,pEC50,CAMA1,6.53
same,pEC50,DU4475,6.92
same,pEC50,HCC1599,6.83
same,pEC50,MCF7,6.17
same,pEC50,MDA-MB-231-Luc,6.64
same,pEC50,T47D,6.30
same,pEC50,ZR-75-1,6.55
same,pEC50,all 50 cell lines,6.69
same,EC50,"[1]; DLD-1, read-out: Colorectal cancer, EC50 (μM) DLD-1",0.157 µM
same,EC50,"[1]; HCT-116, read-out: Colorectal cancer, EC50 (μM) HCT116",0.103 µM
same,EC50,"[1]; HT-29, read-out: Colorectal cancer, EC50 (μM) HT29",0.257 µM
same,EC50,"[1]; SW48, read-out: Colorectal cancer, EC50 (μM) SW48",0.057 µM
same,EC50,"[1]; SW480, read-out: Colorectal cancer, EC50 (μM) SW480",0.129 µM
same,EC50,"[1]; SW-620, read-out: Colorectal cancer, EC50 (μM) SW620",0.072 µM
same,EC50,"[2]; DND41, read-out: Haematopoietic & Lymphoid tumors, EC50 (μM) DND-41",0.167 µM
same,EC50,"[2]; HL-60, read-out: Haematopoietic & Lymphoid tumors, EC50 (μM) HL-60",0.453 µM
same,EC50,"[2]; JM1, read-out: Haematopoietic & Lymphoid tumors, EC50 (μM) JM1",0.047 µM
same,EC50,"[2]; JeKo-1, read-out: Haematopoietic & Lymphoid tumors, EC50 (μM) JeKo-1",0.054 µM
same,EC50,"[2]; Jurkat, read-out: Haematopoietic & Lymphoid tumors, EC50 (μM) JURKAT, Clone E6-1",0.337 µM
same,EC50,"[2]; Kasumi 1, read-out: Haematopoietic & Lymphoid tumors, EC50 (μM) KASUMI-1",0.13 µM
same,EC50,"[2]; MOLT-4, read-out: Haematopoietic & Lymphoid tumors, EC50 (μM) MOLT-4",0.189 µM
same,EC50,"[2]; MV4-11, read-out: Haematopoietic & Lymphoid tumors, EC50 (μM) MV-4-11",0.049 µM
same,EC50,"[2]; Rec1, read-out: Haematopoietic & Lymphoid tumors, EC50 (μM) REC-1",0.049 µM
same,EC50,"[2]; SU-DHL-4, read-out: Haematopoietic & Lymphoid tumors, EC50 (μM) SUDHL4",0.229 µM
same,EC50,"[2]; TF-1, read-out: Haematopoietic & Lymphoid tumors, EC50 (μM) TF-1",0.314 µM
same,EC50,"[2]; Toledo, read-out: Haematopoietic & Lymphoid tumors, EC50 (μM) TOLEDO",0.057 µM
same,EC50,"[2]; read-out: Haematopoietic & Lymphoid tumors, EC50 (μM) Loucy",0.139 µM
same,pEC50,"[3]; HepG2, read-out: Liver cancer, EC50 HEPG2",6.87
same,pEC50,"[3]; PLC-PRF-5, read-out: Liver cancer, EC50 PLC/PRF/5",6.41
same,pEC50,"[3]; SNU-398, read-out: Liver cancer, EC50 SNU398",7.29
same,EC50,"[4]; A-427, read-out: Lung cancer, EC50 (μM) A427",0.136 µM
same,EC50,"[4]; HCC78, read-out: Lung cancer, EC50 (μM) HCC-78",0.211 µM
same,EC50,"[4]; NCI-H460, read-out: Lung cancer, EC50 (μM) NCI-H460",0.207 µM
same,EC50,"[4]; NCI-H522, read-out: Lung cancer, EC50 (μM) NCI-H522",0.119 µM
same,EC50,"[5]; OV-90, read-out: Ovarian cancer, EC50 (μM) OV-90",0.317 µM
same,EC50,"[5]; OVCAR-3, read-out: Ovarian cancer, EC50 (μM) OVCAR-3",0.095 µM
same,EC50,"[5]; PA-1, read-out: Ovarian cancer, EC50 (μM) PA1",0.154 µM
same,EC50,"[5]; TOV112D, read-out: Ovarian cancer, EC50 (μM) TOV-112D",0.106 µM
same,pEC50,"[6]; BXPC-3, read-out: Pancreatic cancer, EC50 BxPC3",6.51
same,pEC50,"[6]; CAPAN-1, read-out: Pancreatic cancer, EC50 Capan1",6.67
same,pEC50,"[6]; Capan-2, read-out: Pancreatic cancer, EC50 Capan2",6.39
same,pEC50,"[6]; MIA PaCa-2, read-out: Pancreatic cancer, EC50 MIA PaCa-2",7.06
same,pEC50,"[6]; PANC-1, read-out: Pancreatic cancer, EC50 PANC-1",6.56
same,pEC50,"[6]; Panc 05.04, read-out: Pancreatic cancer, EC50 PANC 05.04",6.65
same,pEC50,"[6]; read-out: Pancreatic cancer, EC50 UPAFII",6.90
same,pEC50,"[7]; 22Rv1, read-out: Prostate cancer EC50 22Rv1",6.85
same,pEC50,"[7]; DU-145, read-out: Prostate cancer EC50 Du-145",6.63
same,pEC50,"[7]; LNCaP-Clone-FGC, read-out: Prostate cancer EC50 LNCap clone FGC",6.59
same,pEC50,"[7]; PC-3, read-out: Prostate cancer EC50 PC3",6.76
same,pEC50,"[7]; VCaP, read-out: Prostate cancer EC50 VCaP (Sigma)",6.29
same,pEC50,CLK3,7.70
